This is an account of results in publication PMC5218480 (PLoS ONE, 2017).

The test has as its system MV-4-11 cells. The test can be described thus: Gene expression microarray analysis (Affymetrix PrimeView) and GSEA. In kind it is cell-based, human. Details: RFU PODN (11730768_x_at) / Fold change /veh PODN (11730768_x_at) / RFU LINC00158 (11744669_a_at) / Fold change /veh LINC00158 (11744669_a_at) / RFU DUSP10 (11751237_a_at) / Fold change /veh DUSP10 (11751237_a_at) / RFU ID3 (11757404_x_at) / Fold change /veh ID3 (11757404_x_at) / RFU PLEKHG5 (11737974_s_at) / Fold change /veh PLEKHG5 (11737974_s_at) / RFU LRRC4B (11730491_at) / Fold change /veh LRRC4B (11730491_at) / RFU GIMAP4 (11747438_a_at) / Fold change /veh GIMAP4 (11747438_a_at) / RFU KRT8 (11758183_x_at) / Fold change /veh KRT8 (11758183_x_at) / RFU CNN1 (11734310_a_at) / Fold change /veh CNN1 (11734310_a_at) / RFU VPS37D (11726825_at) / Fold change /veh VPS37D (11726825_at) / RFU C10orf10 (11716522_x_at) / Fold change /veh C10orf10 (11716522_x_at) / RFU KIR2DL2 /// KIR2DL4 /// KIR2DL5A /// KIR2DL5B /// KIR2DS1 /// KIR2DS2 /// KIR2DS3 /// KIR2DS4 /// KIR3DL3 /// KIR3DL3 /// KIR3DS1 (11738374_at) / Fold change /veh KIR2DL2 /// KIR2DL4 /// KIR2DL5A /// KIR2DL5B /// KIR2DS1 /// KIR2DS2 /// KIR2DS3 /// KIR2DS4 /// KIR3DL3 /// KIR3DL3 /// KIR3DS1 (11738374_at) / RFU C1QL1 (11718748_at) / Fold change /veh C1QL1 (11718748_at) / RFU TMPRSS4 (11747572_a_at) / Fold change /veh TMPRSS4 (11747572_a_at) / RFU HAMP (11756126_x_at) / Fold change /veh HAMP (11756126_x_at) / RFU RNFT2 (11725882_a_at) / Fold change /veh RNFT2 (11725882_a_at) / RFU NR4A2 (11747474_a_at) / Fold change /veh NR4A2 (11747474_a_at) / RFU ABCC12 (11746883_a_at) / Fold change /veh ABCC12 (11746883_a_at) / RFU TMEM136 (11760407_x_at) / Fold change /veh TMEM136 (11760407_x_at) / RFU CLDN22 /// WWC2 (11732394_at) / Fold change /veh CLDN22 /// WWC2 (11732394_at) / RFU HLA-DPB1 (11760878_x_at) / Fold change /veh HLA-DPB1 (11760878_x_at) / RFU SPINT1 (11716480_a_at) / Fold change /veh SPINT1 (11716480_a_at) / RFU GAP43 (11754022_s_at) / Fold change /veh GAP43 (11754022_s_at) / RFU A4GNT (11735810_at) / Fold change /veh A4GNT (11735810_at) / RFU PRB3 (11715151_x_at) / Fold change /veh PRB3 (11715151_x_at) / RFU TUBB4B (11761932_at) / Fold change /veh TUBB4B (11761932_at) / RFU CAPN14 (11732068_a_at) / Fold change /veh CAPN14 (11732068_a_at) / RFU TMCC2 (11721928_a_at) / Fold change /veh TMCC2 (11721928_a_at) / RFU IRGQ (11745062_a_at) / Fold change /veh IRGQ (11745062_a_at) / RFU FAM174B (11720279_a_at) / Fold change /veh FAM174B (11720279_a_at) / RFU TMPRSS4 (11748680_a_at) / Fold change /veh TMPRSS4 (11748680_a_at) / RFU FAM212B (11763350_a_at) / Fold change /veh FAM212B (11763350_a_at) / RFU PLEKHG5 (11743358_a_at) / Fold change /veh PLEKHG5 (11743358_a_at) / RFU ZSCAN30 (11745921_a_at) / Fold change /veh ZSCAN30 (11745921_a_at) / RFU CMKLR1 (11741424_a_at) / Fold change /veh CMKLR1 (11741424_a_at) / RFU LOC101060620 /// MAPK8IP1 (11723275_at) / Fold change /veh LOC101060620 /// MAPK8IP1 (11723275_at) / RFU SPTSSB (11747773_x_at) / Fold change /veh SPTSSB (11747773_x_at) / RFU PRSS12 (11739890_at) / Fold change /veh PRSS12 (11739890_at) / RFU BIN1 (11741810_x_at) / Fold change /veh BIN1 (11741810_x_at) / RFU WNT11 (11732464_a_at) / Fold change /veh WNT11 (11732464_a_at) / RFU C10orf10 (11716521_a_at) / Fold change /veh C10orf10 (11716521_a_at) / RFU C5orf56 (11738089_at) / Fold change /veh C5orf56 (11738089_at) / RFU CYB561 (11721691_x_at) / Fold change /veh CYB561 (11721691_x_at) / RFU ANKRD19P (11752326_a_at) / Fold change /veh ANKRD19P (11752326_a_at) / RFU OR2T12 /// OR2T33 /// OR2T8 (11738714_s_at) / Fold change /veh OR2T12 /// OR2T33 /// OR2T8 (11738714_s_at) / RFU VCAN (11748164_a_at) / Fold change /veh VCAN (11748164_a_at) / RFU JSRP1 (11732532_at) / Fold change /veh JSRP1 (11732532_at) / RFU KRTAP10-11 (11738290_x_at) / Fold change /veh KRTAP10-11 (11738290_x_at) / RFU MYO3A (11730013_a_at) / Fold change /veh MYO3A (11730013_a_at) / RFU EBF3 (11725865_a_at) / Fold change /veh EBF3 (11725865_a_at) / RFU CAMK2N1 (11719241_x_at) / Fold change /veh CAMK2N1 (11719241_x_at) / RFU C5orf56 (11738088_a_at) / Fold change /veh C5orf56 (11738088_a_at) / RFU OLFML3 (11715873_a_at) / Fold change /veh OLFML3 (11715873_a_at) / RFU LOC100653217 /// NTM (11731650_a_at) / Fold change /veh LOC100653217 /// NTM (11731650_a_at) / RFU MAPK11 (11762145_a_at) / Fold change /veh MAPK11 (11762145_a_at) / RFU FIZ1 (11724087_x_at) / Fold change /veh FIZ1 (11724087_x_at) / RFU OASL (11726364_x_at) / Fold change /veh OASL (11726364_x_at) / RFU SOX15 (11748057_x_at) / Fold change /veh SOX15 (11748057_x_at) / RFU CD79A (11719716_a_at) / Fold change /veh CD79A (11719716_a_at) / RFU HIST1H1D (11736915_at) / Fold change /veh HIST1H1D (11736915_at) / RFU CASKIN2 (11723855_a_at) / Fold change /veh CASKIN2 (11723855_a_at) / RFU LOC730098 (11760151_x_at) / Fold change /veh LOC730098 (11760151_x_at) / RFU OR4N2 (11742367_at) / Fold change /veh OR4N2 (11742367_at) / RFU PRRT2 (11749266_a_at) / Fold change /veh PRRT2 (11749266_a_at) / RFU SNX32 (11753110_a_at) / Fold change /veh SNX32 (11753110_a_at) / RFU CDHR5 (11726645_a_at) / Fold change /veh CDHR5 (11726645_a_at) / RFU RCAN1 (11760418_a_at) / Fold change /veh RCAN1 (11760418_a_at) / RFU FAM167A (11723789_a_at) / Fold change /veh FAM167A (11723789_a_at) / RFU FAM26E (11764081_at) / Fold change /veh FAM26E (11764081_at) / RFU ISYNA1 (11749810_s_at) / Fold change /veh ISYNA1 (11749810_s_at) / RFU ACY1 (11761880_at) / Fold change /veh ACY1 (11761880_at) / RFU 11764098_at / Fold change /veh 11764098_at / RFU SAMD14 (11745864_x_at) / Fold change /veh SAMD14 (11745864_x_at) / RFU NPB (11741838_a_at) / Fold change /veh NPB (11741838_a_at) / RFU TMPRSS6 (11731388_a_at) / Fold change /veh TMPRSS6 (11731388_a_at) / RFU KRTAP10-2 (11738614_at) / Fold change /veh KRTAP10-2 (11738614_at) / RFU ARHGAP8 /// PRR5-ARHGAP8 (11727945_x_at) / Fold change /veh ARHGAP8 /// PRR5-ARHGAP8 (11727945_x_at) / RFU KRTAP5-7 /// NADSYN1 (11734609_at) / Fold change /veh KRTAP5-7 /// NADSYN1 (11734609_at) / RFU RASL12 (11751679_a_at) / Fold change /veh RASL12 (11751679_a_at) / RFU CDKN2B (11736163_a_at) / Fold change /veh CDKN2B (11736163_a_at) / RFU PRF1 (11729649_at) / Fold change /veh PRF1 (11729649_at) / RFU, ZNF638 /// ZNF638-IT1 / Fold change vs veh, ZNF638 /// ZNF638-IT1 / RFU, PANK3 / Fold change vs veh, PANK3 / RFU, SH3YL1 / Fold change vs veh, SH3YL1 / RFU, ZEB2 / Fold change vs veh, ZEB2 / RFU, NRIP1 / Fold change vs veh, NRIP1 / RFU, PTTG1IP / Fold change vs veh, PTTG1IP / RFU, CAPN2 / Fold change vs veh, CAPN2 / RFU, MED14 / Fold change vs veh, MED14 / RFU, SNORA58 / Fold change vs veh, SNORA58 / RFU, C1orf63 / Fold change vs veh, C1orf63 / RFU, LRRFIP1 / Fold change vs veh, LRRFIP1 / RFU, NDUFAF7 / Fold change vs veh, NDUFAF7 / RFU, SLC12A2 / Fold change vs veh, SLC12A2 / RFU, IBTK / Fold change vs veh, IBTK / RFU, ESF1 / Fold change vs veh, ESF1 / Fold change vs veh, TMEM50B / RFU, TAOK1 / Fold change vs veh, TAOK1 / RFU, ACBD3 / Fold change vs veh, ACBD3 / RFU, TMA16 / Fold change vs veh, TMA16 / RFU, RWDD3 / Fold change vs veh, RWDD3 / RFU, BCAT1 / Fold change vs veh, BCAT1 / RFU, EDEM3 / Fold change vs veh, EDEM3 / RFU, TMEM33 / Fold change vs veh, TMEM33 / RFU, WDR75 / Fold change vs veh, WDR75 / RFU, AHCTF1 / Fold change vs veh, AHCTF1 / RFU, TFRC / Fold change vs veh, TFRC / RFU, ZDHHC17 / Fold change vs veh, ZDHHC17 / RFU, NOM1 / Fold change vs veh, NOM1 / RFU, ARL8B / Fold change vs veh, ARL8B / RFU, ZBTB11 / Fold change vs veh, ZBTB11 / RFU, TAMM41 / Fold change vs veh, TAMM41 / RFU, KIAA1704 /// LOC100996395 / Fold change vs veh, KIAA1704 /// LOC100996395 / RFU, ING1 / Fold change vs veh, ING1 / RFU, TRMT61B / Fold change vs veh, TRMT61B / RFU, FUBP3 / Fold change vs veh, FUBP3 / RFU, TP53 / Fold change vs veh, TP53 / RFU, TNKS2 / Fold change vs veh, TNKS2 / RFU, ZFP14 / Fold change vs veh, ZFP14 / RFU, ACTR2 / Fold change vs veh, ACTR2 / RFU, PPP3R1 / Fold change vs veh, PPP3R1 / RFU, PIK3R1 / Fold change vs veh, PIK3R1 / RFU, HNRNPA1 / Fold change vs veh, HNRNPA1 / RFU, RNF170 / Fold change vs veh, RNF170 / RFU, ZNF28 / Fold change vs veh, ZNF28 / RFU, RNGTT / Fold change vs veh, RNGTT / RFU, OGT / Fold change vs veh, OGT / RFU, BRD1 / Fold change vs veh, BRD1 / RFU, MARS / Fold change vs veh, MARS / RFU, ZNF655 / Fold change vs veh, ZNF655 / RFU, FAHD1 / Fold change vs veh, FAHD1 / RFU, BDP1 / Fold change vs veh, BDP1 / RFU, LRRCC1 / Fold change vs veh, LRRCC1 / RFU, ARID1A / Fold change vs veh, ARID1A / RFU, ZNF146 / Fold change vs veh, ZNF146 / RFU, ZNF330 / Fold change vs veh, ZNF330 / RFU, GPN3 / Fold change vs veh, GPN3 / RFU, C9orf123 / Fold change vs veh, C9orf123 / RFU, N4BP2L2 / Fold change vs veh, N4BP2L2 / RFU, ARFIP1 / Fold change vs veh, ARFIP1 / RFU, FAM179B / Fold change vs veh, FAM179B / RFU, BCL10 / Fold change vs veh, BCL10 / RFU, UHRF1BP1L / Fold change vs veh, UHRF1BP1L / RFU, BET1 / Fold change vs veh, BET1 / RFU, CNOT2 / Fold change vs veh, CNOT2 / RFU, ZNF268 / Fold change vs veh, ZNF268 / Fold change vs veh, ZNF507 / RFU, DGCR2 / Fold change vs veh, DGCR2 / RFU, WDSUB1 / Fold change vs veh, WDSUB1 / Fold change vs veh, HSP90B1 /// MIR3652 / RFU, ADSS / Fold change vs veh, ADSS / RFU, GK / Fold change vs veh, GK / RFU, ZNF148 / Fold change vs veh, ZNF148 / RFU, TAF9 / Fold change vs veh, TAF9 / RFU, SLC1A5 / Fold change vs veh, SLC1A5 / RFU, SLMO2 / Fold change vs veh, SLMO2 / RFU, ABCC4 / Fold change vs veh, ABCC4 / RFU, LOC101060439 /// RAP1B / Fold change vs veh, LOC101060439 /// RAP1B / RFU, RFX7 / Fold change vs veh, RFX7 / RFU, GTPBP10 / Fold change vs veh, GTPBP10 / RFU, CNEP1R1 / Fold change vs veh, CNEP1R1 / RFU, BIVM-ERCC5 /// ERCC5 / Fold change vs veh, BIVM-ERCC5 /// ERCC5 / RFU, ILF3 / Fold change vs veh, ILF3 / RFU 11762660_at / Fold change /veh 11762660_at / RFU VCAN (11757783_s_at) / Fold change /veh VCAN (11757783_s_at) / RFU DDX43 (11728927_at) / Fold change /veh DDX43 (11728927_at) / RFU KRT8 (11758188_x_at) / Fold change /veh KRT8 (11758188_x_at) / RFU NKD1 (11759106_at) / Fold change /veh NKD1 (11759106_at) / RFU SRD5A1 (11742802_a_at) / Fold change /veh SRD5A1 (11742802_a_at) / RFU TPSAB1 /// TPSB2 (11721975_s_at) / Fold change /veh TPSAB1 /// TPSB2 (11721975_s_at) / RFU GSTM3 (11746129_a_at) / Fold change /veh GSTM3 (11746129_a_at) / RFU IL23R (11737362_x_at) / Fold change /veh IL23R (11737362_x_at) / RFU TMEM51 (11727254_a_at) / Fold change /veh TMEM51 (11727254_a_at) / RFU PIWIL2 (11732686_x_at) / Fold change /veh PIWIL2 (11732686_x_at) / RFU ORM1 (11744905_x_at) / Fold change /veh ORM1 (11744905_x_at) / RFU CCDC152 (11743942_at) / Fold change /veh CCDC152 (11743942_at) / RFU ECM1 (11717891_a_at) / Fold change /veh ECM1 (11717891_a_at) / RFU IL23R (11748794_a_at) / Fold change /veh IL23R (11748794_a_at) / RFU TNFAIP8L3 (11732012_x_at) / Fold change /veh TNFAIP8L3 (11732012_x_at) / RFU MBOAT4 (11741988_at) / Fold change /veh MBOAT4 (11741988_at) / RFU 11764193_at / Fold change /veh 11764193_at / RFU TMEM53 (11763286_at) / Fold change /veh TMEM53 (11763286_at) / RFU MAGEB2 (11727129_at) / Fold change /veh MAGEB2 (11727129_at) / RFU TMEM200A (11744735_a_at) / Fold change /veh TMEM200A (11744735_a_at) / RFU CCDC152 (11751479_a_at) / Fold change /veh CCDC152 (11751479_a_at) / RFU FAM211A (11726209_a_at) / Fold change /veh FAM211A (11726209_a_at) / RFU RGS16 (11746705_a_at) / Fold change /veh RGS16 (11746705_a_at) / RFU VCAN (11755009_s_at) / Fold change /veh VCAN (11755009_s_at) / RFU RHOB (11743442_s_at) / Fold change /veh RHOB (11743442_s_at) / RFU RGS16 (11720943_a_at) / Fold change /veh RGS16 (11720943_a_at) / RFU RGS16 (11720944_at) / Fold change /veh RGS16 (11720944_at) / RFU, VPS4B / Fold change vs veh, VPS4B / RFU, CREB1 / Fold change vs veh, CREB1 / RFU, DNAJC13 / Fold change vs veh, DNAJC13 / RFU, GNAQ / Fold change vs veh, GNAQ / RFU, CDK5R1 / Fold change vs veh, CDK5R1 / RFU, ZRANB3 / Fold change vs veh, ZRANB3 / RFU, CUL4A / Fold change vs veh, CUL4A / RFU, CCNY / Fold change vs veh, CCNY / RFU, UFL1 / Fold change vs veh, UFL1 / RFU, COG3 / Fold change vs veh, COG3 / RFU, DIAPH2 / Fold change vs veh, DIAPH2 / RFU, SKA2 / Fold change vs veh, SKA2 / RFU, AFF3 / Fold change vs veh, AFF3 / RFU, LMF1 / Fold change vs veh, LMF1 / RFU, IPO11 / Fold change vs veh, IPO11 / RFU, DFFB / Fold change vs veh, DFFB / RFU, FOXP1 / Fold change vs veh, FOXP1 / RFU, CARD8 / Fold change vs veh, CARD8 / RFU, STRN3 / Fold change vs veh, STRN3 / RFU, ADK / Fold change vs veh, ADK / RFU, RASSF2 / Fold change vs veh, RASSF2 / RFU, WIPF1 / Fold change vs veh, WIPF1 / RFU, LARP1B / Fold change vs veh, LARP1B / RFU, RASA1 / Fold change vs veh, RASA1 / RFU, RB1 / Fold change vs veh, RB1 / RFU, PPFIA1 / Fold change vs veh, PPFIA1 / RFU, MAT2A / Fold change vs veh, MAT2A / RFU, CCT5 / Fold change vs veh, CCT5 / RFU, WDR92 / Fold change vs veh, WDR92 / RFU, CUX1 / Fold change vs veh, CUX1 / RFU, TTC7A / Fold change vs veh, TTC7A / RFU, TMEM135 / Fold change vs veh, TMEM135 / RFU, DEPTOR / Fold change vs veh, DEPTOR / RFU, CPM / Fold change vs veh, CPM / RFU, DNAJB6 / Fold change vs veh, DNAJB6 / RFU, CACNA2D3 / Fold change vs veh, CACNA2D3 / RFU, DTX4 / Fold change vs veh, DTX4 / RFU, TFCP2 / Fold change vs veh, TFCP2 / RFU, GMCL1 /// GMCL1P1 / Fold change vs veh, GMCL1 /// GMCL1P1 / RFU, AEBP2 / Fold change vs veh, AEBP2 / RFU, SNHG1 /// SNORD22 /// SNORD25 /// SNORD26 /// SNORD27 /// SNORD28 /// SNORD29 /// SNORD31 / Fold change vs veh, SNHG1 /// SNORD22 /// SNORD25 /// SNORD26 /// SNORD27 /// SNORD28 /// SNORD29 /// SNORD31 / Fold change (Aza/veh), C12orf56 (ProbeSet 11735607_a_at) / Fold change (ACY-1035/veh), C12orf56 (ProbeSet 11735607_a_at) / Fold change (Aza/veh), FGFR1OP (ProbeSet 11751329_s_at) / Fold change (ACY-1035/veh), FGFR1OP (ProbeSet 11751329_s_at) / Fold change (Aza/veh), VPS36 (ProbeSet 11739960_a_at) / Fold change (ACY-1035/veh), VPS36 (ProbeSet 11739960_a_at) / RFU SYPL1 (11715823_x_at) / Fold change /veh SYPL1 (11715823_x_at) / RFU IGFBP7 (11715501_s_at) / Fold change /veh IGFBP7 (11715501_s_at) / RFU REEP3 (11722064_at) / Fold change /veh REEP3 (11722064_at) / RFU IGLL1 (11728026_x_at) / Fold change /veh IGLL1 (11728026_x_at): dose or concentration left out as unconfirmed. The settings on record: ProbeSet 11743510_at; LIST D.

Consider `Nc1ccc(-c2cccs2)cc1NC(=O)c1ccc2c(c1)cc(C1CC1)n2CCN1CCOCC1` [ACY-1035], for which the “Fold change vs veh, UFL1” value worked out at 0.85.
